US20080275134A1, “Methods for Treatment of Retinal Degenerative Disease” (University of Washington, priority 2005, published 2008)

Tests used:
isomerase = target: T1, isomerase (Bos taurus, UniProt Q28175); assay: isomerase reaction: 11-cis-retinol production by RPE microsomes from all-trans-retinol; assay type: biochemical, bovine; conditions: for inhibition of isomerization (in words): in vitro; for inhibition of isomerization (in words) / IC50: RPE microsomes; for lowering of potency by saturation of the C13-14 double bond: relative to the 11-cis- and all-trans-isomers of Ret-NH2; for IC50: all-trans-retinol substrate, read-out: IC50, inhibition of 11-cis-retinol production
T1 construct: Purified RPE microsomes were the source of the enzymes; from tissue; host or cells: bovine retinal pigment epithelium microsomes
T1 sequence (Q28175 2-533 limits assumed): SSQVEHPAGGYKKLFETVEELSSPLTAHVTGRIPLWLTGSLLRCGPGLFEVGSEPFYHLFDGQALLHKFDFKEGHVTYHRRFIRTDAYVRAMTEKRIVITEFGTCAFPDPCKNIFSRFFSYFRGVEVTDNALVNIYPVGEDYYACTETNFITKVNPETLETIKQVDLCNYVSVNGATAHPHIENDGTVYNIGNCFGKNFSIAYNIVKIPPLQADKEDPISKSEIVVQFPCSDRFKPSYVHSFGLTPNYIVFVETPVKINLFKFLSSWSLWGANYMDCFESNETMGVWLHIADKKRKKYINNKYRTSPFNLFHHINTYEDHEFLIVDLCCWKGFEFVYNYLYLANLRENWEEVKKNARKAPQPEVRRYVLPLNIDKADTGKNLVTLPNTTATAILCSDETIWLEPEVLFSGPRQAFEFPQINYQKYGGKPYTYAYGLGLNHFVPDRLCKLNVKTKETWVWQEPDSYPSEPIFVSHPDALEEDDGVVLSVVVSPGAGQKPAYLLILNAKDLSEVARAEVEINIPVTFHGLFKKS
Experimental: (§1) To test if 11-cis-retinylamine (11-cis Ret-NH2) affects isomerization and esterification, an in vitro assay was employed. In this assay both of the all-trans-retinyl esters formed in the reaction catalyzed by LRAT and 11-cis-retinol production by isomerase were measured (6). Purified RPE microsomes were the source of the enzymes, and all-trans-retinol was the substrate. […] Inhibition of isomerization by Ret-NH2 is not due to binding of CRALBP or competition with 11-cis-retinol for binding to CRALBP. […] An increased concentration of all-trans-retinol lowered the level of inhibition, as illustrated in FIG. 2B. […] Dixon's and Lineweaver-Burk plots in the standard assay conditions yielded Ki=0.1 μM for Ret-NH2 when all-trans-retinol (KM=0.3 μM) was assumed to be a substrate. […] This estimated value reflects the very potent nature of the inhibition by 11-cis-Ret-NH2.
Materials—Fresh bovine eyes were obtained from a local slaughterhouse (Schenk Packing Co., Inc., Stanwood, Wash.). Preparation of bovine RPE microsomes was performed according to previously described methods (Stecher et al., J Biol Chem 274:8577-85, 1999). All chemicals were purchased from Sigma-Aldrich (St. Louis, Mo.). 11-cis-Retinal was obtained from Dr. Rosalie Crouch (Charleston, S.C.).
Reaction conditions for isomerase and LRAT reaction—The isomerase reaction was performed essentially as described previously (Stecher et al., J Biol Chem 274:8577-85, 1999). The reaction was carried out in 10 mM BTP buffer, pH 7.5, 1% BSA, containing 1 mM ATP and 6 μM apo-CRALBP. To investigate inhibition properties of Ret-NH2 and its derivatives, RPE microsomes were preincubated for 5 min in 37° C. with the indicated compound in 10 mM BTP buffer, pH 7.5, 1% BSA, 1 mM ATP prior to addition of apo-CRALBP and all-trans-retinol. Ret-NH2 and its derivatives were delivered to the reaction mixture in 1 μl of DMF, and the same volume of DMF was added to the control reaction. Each experiment was performed three times in duplicate. The average values were used and the standard deviations were calculated.

RPE protein(s) = assay: gel filtration chromatography of DHPC-solubilized RPE microsome proteins with retinoid; assay type: binding, bovine; conditions: for gel filtration elution position (fractions): Superdex 200, native RPE extract, proteins elute in fractions 18-60
Experimental: The specificity of Ret-NH2 was further tested by biochemical assays. […] When the RPE microsomes were solubilized with DHPC, the isomerase activity decreased only slightly. Then [^3H]-Ret-NH2 was added to the RPE extract and loaded on a gel filtration column. Proteins were fractionated and eluted between fractions 18 and 60 (FIG. 3A), while the radioactivity was eluted in fractions 36-38. RPE65 was identified by immunoblotting in fractions 23-34 (FIG. 3B). The most abundant proteins in this fraction were identified by mass spectrometry and include glucose phosphate isomerase, D-glyceraldehyde-3-phosphate dehydrogenase, phosphoglycerate mutase, triose phosphate isomerase, enolase, annexin V, calbindin 2, and LRAT. Identification of less abundant proteins is in progress.
RPE microsomes were solubilized with 10 mM DHPC, incubated with 11,12-di[^3H]-all-trans-Ret-NH2 (1 μM), and loaded on a Superdex 200 column equilibrated with Tris/HCl buffer, pH 7.5, containing 4 mM DHPC. Proteins were eluted with a constant flow rate of 0.4 ml/min. The protein and radioactivity levels of 0.4 ml fractions were examined by SDS-PAGE and scintillation counting (A), and immunoblot with anti-RPE65 and anti-LRAT antibodies (B). The star indicates the fraction associated with maximum radioactivity.

[1] = system: regeneration of vision chromophore (11-cis-retinal); assay: regeneration of 11-cis-retinal in mouse eyes after gavage and light bleach, HPLC retinoid analysis; assay type: in vivo; conditions: gavage in vegetable oil, 16 hours dark, light stimulated, 5 hours dark
Experimental: Mice were gavaged with all-trains-Ret-NH2, exposed to intense light for 20 min, and then allowed to recover in the dark for 5 hours. The total amount of different forms of retinoids in all experiments was unchanged. […] For this experiment mice were treated with both 9-cis-retinol and all-trans-Ret-NH2, and bleached after 24 hours, and were allowed to recover for 5 hours in the dark. The presence of 9-cis-retinal was confirmed in treated animals (see peaks 4 and 4′ in FIG. 4A bottom panel, corresponding to syn- and anti-9-cis-retinal oximes, respectively). 11-cis-Retinal was not reduced and/or esterified after treatment with Ret-NH2. […] This supports the idea that Ret-NH2 is a specific inhibitor of the isomerization reaction.
A. Chromatographic separation of nonpolar retinoids from WT mouse eyes. Mice were gavaged with all-trans-Ret-NH2 24 hours prior to bleaching for 20 min at 150 cd·m^−2 W in the Ganzfeld chamber. Regeneration of 11-cis-retinal was allowed for 24 hours in the dark, and retinoids were extracted from the eye and separated by normal phase HPLC as described in Materials and Methods. The peaks were identified based on elution time and absorption spectra correspond to the following retinoids: 1, all-trans-retinyl esters; 2,2′, syn- and anti-11-cis-retinal oximes; 3, syn-all-trans-retinal oxime; 4,4′, syn- and anti-9-cis-retinal oximes; 5, all-trans-retinol. B. Changes of 11-cis-retinal oxime levels at increasing doses of all-trans-Ret-NH2 during 5 hours or 24 hours of dark adaptation. Square indicates the level of 11-cis-retinal oximes that was present in mice gavaged with vegetable oil without retinoids just after bleaching, and arrow indicates the increase of visual chromophore during 5 hours of dark adaptation. Triangles correspond to the level of 11-cis-retinal found in the mice gavaged with 50 mg/kg of 13-cis-RA. C and D. Single flash ERG responses of increasing intensity for all-trans-Ret-NH2 treated mice and control mice. Serial responses to increasing flash stimuli were obtained for all-trans-Ret-NH2 treated and control mice for selected intensities (C) and plotted as a function of a-wave and b-wave versus varying light intensities under dark-adapted conditions (D) before bleach and at 5 hours and 24 hours after bleach. The dark-adapted mice were bleached with intense constant illumination (150 cd·m^−2) for 20 min. […] SE bars are shown.
Chromatographic separation of nonpolar retinoids from WT mouse eyes. Mice were gavaged with 100 mg/kg of all-trans-Ret-NH2 24 hours prior to bleaching. Mice were next exposed to 500 cd m^−2 for 48 min bleaching in the Ganzfeld chamber. Regeneration of 11-cis-retinal was allowed for 24 hours in the dark, and retinoids were extracted from the eye and separated by normal phase HPLC as described in Materials and Methods. The peaks identified based on elution time and absorption spectra correspond to the following retinoids: 1, all-trans-retinyl esters; 2,2′, syn- and anti-1-cis-retinal oximes; 3,3′ syn- and anti-all-trans-retinal oximes; 4, all-trans-retinol.
Mice were gavaged with the solution of inhibitor in vegetable oil (control—non-treated, RPN—retinylpalmitamide, RAN—retinylacetamide, Ret—NH2-all-trans-retinylamine), kept in dark for 16 hours, then light stimulated and kept in dark for additional 5 hours before their eyes were analyzed.
Mouse retinoid extraction and analysis—Retinoid analysis was performed under dim red light as described previously (Maeda et al., J. Neurochem 85:944-956, 2003; Van Hooser et al., J Biol Chem 277:19173-82, 2002). Mice were gavaged with retinoids as described previously (Van Hooser et al., J Biol Chem 277:19173-82, 2002).

LRAT = target: T2, LRAT (Bos taurus, UniProt Q9BGL2); assay: LRAT reaction: formation of all-trans-retinyl esters by RPE microsomes; assay type: biochemical, bovine; conditions: all-trans-retinol substrate
T2 construct: Purified RPE microsomes were the source of the enzymes; from tissue; host or cells: bovine retinal pigment epithelium microsomes
T2 sequence (Q9BGL2 1-230): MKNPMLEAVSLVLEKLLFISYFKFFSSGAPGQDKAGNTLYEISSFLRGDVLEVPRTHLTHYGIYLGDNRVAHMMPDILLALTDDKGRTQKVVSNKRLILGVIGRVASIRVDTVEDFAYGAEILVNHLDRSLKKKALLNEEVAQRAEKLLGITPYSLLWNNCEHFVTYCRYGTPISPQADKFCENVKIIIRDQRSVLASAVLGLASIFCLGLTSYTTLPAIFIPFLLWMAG
Experimental: as §1
Materials—Fresh bovine eyes were obtained from a local slaughterhouse (Schenk Packing Co., Inc., Stanwood, Wash.). Preparation of bovine RPE microsomes was performed according to previously described methods (Stecher et al., J Biol Chem 274:8577-85, 1999). […]
Reaction conditions for isomerase and LRAT reaction—The isomerase reaction was performed essentially as described previously (Stecher et al., J Biol Chem 274:8577-85, 1999). […] The average values were used and the standard deviations were calculated.

CRALBP = CRALBP (Homo sapiens, UniProt P12271); assay: analysis of retinoids bound to CRALBP isolated from the reaction mixture; assay type: binding
CRALBP, sequence (P12271 whole entry, species assumed): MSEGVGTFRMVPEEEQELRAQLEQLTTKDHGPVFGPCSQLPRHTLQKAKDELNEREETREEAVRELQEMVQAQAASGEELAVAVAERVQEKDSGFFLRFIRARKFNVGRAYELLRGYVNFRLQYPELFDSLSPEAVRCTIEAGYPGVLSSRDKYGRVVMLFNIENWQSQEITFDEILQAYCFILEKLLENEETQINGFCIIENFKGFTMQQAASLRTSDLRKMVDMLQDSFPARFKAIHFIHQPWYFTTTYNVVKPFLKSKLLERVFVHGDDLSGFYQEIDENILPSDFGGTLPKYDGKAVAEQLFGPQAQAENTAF

CC1=C(/C=C/C(C)=C/C=C/C(C)=C/CNO)C(C)(C)CCC1 [N-hydroxyretinylamine]
inhibition of isomerization (in words) (isomerase): higher IC50

CC1=C(/C=C/C(C)=C/C=C/C(C)=C/CS)C(C)(C)CCC1 [all-trans-thioretinol, reference compound]
inhibition of isomerization (in words) (isomerase): neither all-trans-thioretinol nor all-trans-13,14-dihydroretinol influenced the isomerization

CC1=C(/C=C/C(C)=C/C=C/C(C)=C/CO)C(C)(C)CCC1 [all-trans-retinol, reference compound]
Km (isomerase; all-trans-retinol assumed to be a substrate): 0.3 µM | inhibition of isomerization (in words) (isomerase): weakly inhibit the isomerization reaction | gel filtration elution position (fractions) (RPE protein(s)): eluted either in the void volume or with low molecular weight compounds

[3H]C(C=C(C)C=CC1=C(C)CCCC1(C)C)=C([3H])C(C)=CCN [[^3H]-Ret-NH2, 11,12-di[^3H]-all-trans-Ret-NH2]
gel filtration elution position (fractions), heat-denaturated proteins (RPE protein(s); control with heat-denaturated proteins): 48-60

CC(=O)NC/C=C(C)/C=C/C=C(C)/C=C/C1=C(C)CCCC1(C)C [N-retinylacetamide]
inhibition of isomerization (in words) (isomerase): weakly inhibit the isomerization reaction | gel filtration elution position (fractions) (RPE protein(s)): eluted either in the void volume or with low molecular weight compounds | inhibition of regeneration of vision chromophore in mice by retinylamides [1]: potent inhibitors of regeneration in mice | inhibition of regeneration of vision chromophore in mice by retinylamides ([1]; listed as RAN): same as free retinylamine

CC(C=CC1=C(C)CCCC1(C)C)=CC=CC(C)CCN (centres unmarked) [VIII]
lowering of potency by saturation of the C13-14 double bond (isomerase): about 10 fold

CC(C=CC1=C(C)CCCC1(C)C)=CC=CC(C)=CCN (single isomer, unassigned) [13-cis-Ret-NH2, 13-cis-retinylamine]
IC50 (isomerase): 730 nM

CC(C=CC1=C(C)CCCC1(C)C)=CC=CC(C)=CCN (single isomer, unassigned) [9-cis-Ret-NH2, 9-cis-retinylamine]
IC50 (isomerase): 640 nM

CCCCCCCCCCCCCCCC(=O)NC/C=C(C)/C=C/C=C(C)/C=C/C1=C(C)CCCC1(C)C [N-Retinylpalmitamide]
inhibition of isomerization (in words) (isomerase): did not inhibit isomerization | inhibition of isomerization (in words) (isomerase; listed as N-palmitoylretinamide): non-inhibitory | inhibition of regeneration of vision chromophore in mice by retinylamides [1]: potent inhibitors of regeneration in mice | inhibition of regeneration of vision chromophore in mice by retinylamides ([1]; listed as RPN): same as free retinylamine

CC1=C(/C=C/C(C)=C/C=C/C(C)CCO)C(C)(C)CCC1 (stereo not drawn) [all-trans-13,14-dihydroretinol, reference compound]
inhibition of isomerization (in words) (isomerase): neither all-trans-thioretinol nor all-trans-13,14-dihydroretinol influenced the isomerization

CC1=C(/C=C/C(C)=C/C=CC(C)CCN)C(C)(C)CCC1 (centres unmarked) [VII]
lowering of potency by saturation of the C13-14 double bond (isomerase): about 10 fold

CC(C=CC1=C(C)CCCC1(C)C)=CC=CC(C)=CCN (single isomer, unassigned) [11-cis-Ret-NH2, 11-cis-retinylamine]
IC50 (isomerase): 70 nM | inhibition of isomerization (in words) (isomerase): most potent inhibitor | formation of all-trans-retinyl esters (LRAT activity) (LRAT): not affected | binding to CRALBP (CRALBP): did not reveal any significant levels
